Publication PMC5478727, “A Novel Small Molecule GDNF Receptor RET Agonist, BT13, Promotes Neurite Growth from Sensory Neurons in Vitro and Attenuates Experimental Neuropathy in the Rat” (Frontiers in Pharmacology, 2017)

Tests used:
[1] = test system: Akt and Erk phosphorylation in MG87TrkB; assay: Erk1/2 and Akt phosphorylation assay in MG87TrkB cells; format: cell-based, murine; settings: BT13 10–100 μM, BDNF positive control
Method: (§1) MG87RET, MG87TrkA, or MG87TrkB were plated on 35 mm tissue culture dishes 1–2 days before the experiment to achieve 90–95% of confluency of the cells at the day of stimulation with tested substances. If necessary, cells were transfected with 4 μg/well of GFRα1-, GFRα3-, or green fluorescent protein (GFP)-expressing plasmid using Lipofectamine 2000 (Invitrogen) for DNA delivery as described by manufacturer. Before the experiment cells were starved in serum-free DMEM containing 15 mM HEPES, pH 7.2 and 1% DMSO for 4 h and stimulated with BT13 or neurotrophic factors. Then cells were washed once with ice-cold PBS containing 1 mM Na3VO4 and 1 mM NaF and lysed on ice in 1 ml per well of RIPA-modified buffer (50 mM Tris-HCl, pH 7.4, 150 mM NaCl, 1 mM EDTA, 1% NP-40, 1% TX-100, 10% glycerol, EDTA-free protease inhibitor cocktail (Roche), 1 mM Na3VO4, 2.5 mg/ml of sodium deoxycholate, 1 mM NaF). Plates were incubated at +4°C on the horizontal shaker for 30 min with vigorous shaking. Afterwards, 80–100 μl aliquot was taken from each well to prepare whole cell lysates. This aliquot was mixed with equal volume of 2x Laemmli loading buffer (4% SDS, 20% glycerol, 10% 2-mercaptoethanol, 0.004% bromphenol blue, 0.125 M Tris HCl, pH 6.8) and boiled for 10 min at 100°C. Remaining cell lysates were used for immunoprecipitation of RET or Trk receptors. […]

[2] = target: T1, Protein Serine/Threonine Phosphatase, PP2A (Homo sapiens, UniProt P67775); assay: CEREP Protein Serine/Threonine Phosphatase, PP2A; format: biochemical; settings: BT13 1 μM; Cat. No. 3953; average of duplicate; read-out: Percentage of inhibition/potentiation from control
T1 construct: purchased CEREP (contract assay) 3953
T1 sequence (P67775 whole entry): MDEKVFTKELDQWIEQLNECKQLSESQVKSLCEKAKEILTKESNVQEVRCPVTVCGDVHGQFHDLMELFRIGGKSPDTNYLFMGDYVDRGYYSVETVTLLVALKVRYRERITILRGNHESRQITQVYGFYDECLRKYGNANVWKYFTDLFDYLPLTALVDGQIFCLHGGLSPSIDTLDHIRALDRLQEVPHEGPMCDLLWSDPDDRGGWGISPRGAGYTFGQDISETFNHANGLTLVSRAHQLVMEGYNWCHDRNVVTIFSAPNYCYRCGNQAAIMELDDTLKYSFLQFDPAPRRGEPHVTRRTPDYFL

CYP3A4 = target: T2, CYP3A4 (Homo sapiens, UniProt P08684); assay: CYP inhibition, fluorescent assay; format: biochemical; settings: read-out: Inhibition of CYP isoforms (IC50), CYP3A4
T2 construct: Cyathus Exquirere (contract laboratory)
T2 sequence (P08684 whole entry, canonical isoform): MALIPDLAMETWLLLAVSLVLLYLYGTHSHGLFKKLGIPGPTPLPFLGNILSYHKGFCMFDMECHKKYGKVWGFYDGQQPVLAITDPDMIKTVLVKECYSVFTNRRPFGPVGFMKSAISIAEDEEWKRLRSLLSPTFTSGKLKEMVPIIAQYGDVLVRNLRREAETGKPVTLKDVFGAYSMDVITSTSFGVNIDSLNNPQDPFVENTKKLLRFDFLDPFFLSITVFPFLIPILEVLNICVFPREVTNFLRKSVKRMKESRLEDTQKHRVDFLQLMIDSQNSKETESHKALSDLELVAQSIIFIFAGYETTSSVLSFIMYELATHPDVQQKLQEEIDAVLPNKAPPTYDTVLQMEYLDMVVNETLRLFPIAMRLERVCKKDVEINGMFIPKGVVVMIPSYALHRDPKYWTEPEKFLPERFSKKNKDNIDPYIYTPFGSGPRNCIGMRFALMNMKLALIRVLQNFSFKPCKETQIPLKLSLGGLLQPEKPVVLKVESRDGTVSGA

[3] = Plasma stability, rat plasma; format: in vitro ADME; settings: read-out: Plasma stability (% remaining after 1 h)
RET mRNA in DRGs = assay: qPCR of RET mRNA in DRGs of animals with SNL; format: in vivo, rat; settings: SNL rats; BT13-treated vs vehicle-treated
CYP2D6 = target: T3, CYP2D6 (Homo sapiens, UniProt P10635); assay: CYP inhibition, fluorescent assay; format: biochemical; settings: read-out: Inhibition of CYP isoforms (IC50), CYP2D6
T3 construct: Cyathus Exquirere (contract laboratory)
T3 sequence (P10635 whole entry, canonical isoform): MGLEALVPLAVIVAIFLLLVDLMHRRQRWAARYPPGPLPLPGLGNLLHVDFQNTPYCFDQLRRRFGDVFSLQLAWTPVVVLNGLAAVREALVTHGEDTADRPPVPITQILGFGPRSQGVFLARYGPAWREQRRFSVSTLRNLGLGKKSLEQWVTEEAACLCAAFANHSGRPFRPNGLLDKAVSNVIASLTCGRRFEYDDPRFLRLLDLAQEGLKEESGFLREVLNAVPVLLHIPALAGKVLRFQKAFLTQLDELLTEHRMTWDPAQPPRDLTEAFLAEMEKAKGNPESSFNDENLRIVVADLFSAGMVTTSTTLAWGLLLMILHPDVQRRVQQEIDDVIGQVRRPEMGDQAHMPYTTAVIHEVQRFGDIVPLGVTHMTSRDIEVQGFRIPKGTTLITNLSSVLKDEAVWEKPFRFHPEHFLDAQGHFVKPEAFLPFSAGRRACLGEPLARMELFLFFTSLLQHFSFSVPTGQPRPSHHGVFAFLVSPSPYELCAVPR

GFRα1/RET = target: T4, GFRα1/RET (Homo sapiens, UniProt P07949); assay: Luciferase reporter-gene assay (PathDetect Elk-1), GFRα1/RET reporter cells; format: cell-based; settings: GFRα1/RET reporter cell line
T4 construct: full-length human RET (long isoform) in pCR3.1; expressed in transfected cells; host or cells: MG87 murine fibroblasts (MG87RET + PathDetect Elk-1 + GFRα1)
T4 sequence (P07949 29-1114): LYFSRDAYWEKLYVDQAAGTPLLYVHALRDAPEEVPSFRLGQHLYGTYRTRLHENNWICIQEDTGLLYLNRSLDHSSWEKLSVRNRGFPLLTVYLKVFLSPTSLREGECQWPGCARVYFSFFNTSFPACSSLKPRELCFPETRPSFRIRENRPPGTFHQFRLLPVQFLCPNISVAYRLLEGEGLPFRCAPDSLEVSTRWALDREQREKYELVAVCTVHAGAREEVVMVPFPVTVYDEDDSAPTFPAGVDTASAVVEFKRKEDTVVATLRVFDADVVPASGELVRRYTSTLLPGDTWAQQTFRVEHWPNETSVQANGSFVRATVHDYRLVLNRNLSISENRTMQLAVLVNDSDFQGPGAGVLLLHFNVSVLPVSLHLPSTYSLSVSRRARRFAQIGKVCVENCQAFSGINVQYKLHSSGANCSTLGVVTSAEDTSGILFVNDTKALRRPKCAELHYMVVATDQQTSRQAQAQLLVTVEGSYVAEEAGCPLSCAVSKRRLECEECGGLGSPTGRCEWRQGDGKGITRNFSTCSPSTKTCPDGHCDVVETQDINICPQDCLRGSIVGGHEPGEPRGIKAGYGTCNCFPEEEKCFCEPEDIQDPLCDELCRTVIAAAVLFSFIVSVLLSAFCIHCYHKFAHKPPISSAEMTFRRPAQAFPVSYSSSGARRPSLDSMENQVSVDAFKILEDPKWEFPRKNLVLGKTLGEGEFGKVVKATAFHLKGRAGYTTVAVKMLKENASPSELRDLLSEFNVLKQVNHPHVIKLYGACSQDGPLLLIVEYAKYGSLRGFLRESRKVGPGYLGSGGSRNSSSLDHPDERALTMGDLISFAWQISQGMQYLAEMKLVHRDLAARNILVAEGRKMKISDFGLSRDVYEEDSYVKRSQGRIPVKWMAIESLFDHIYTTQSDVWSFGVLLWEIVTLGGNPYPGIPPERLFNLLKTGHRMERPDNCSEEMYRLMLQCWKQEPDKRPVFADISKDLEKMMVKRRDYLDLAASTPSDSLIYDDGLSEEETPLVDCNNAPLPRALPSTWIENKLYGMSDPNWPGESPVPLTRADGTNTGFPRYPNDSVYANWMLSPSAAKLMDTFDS

[4] = target: T5, opioid receptor delta (DOP) (Mus musculus, UniProt P32300); assay: CEREP Delta (DOP) (agonist effect); format: cell-based; settings: BT13 1 μM, Cat. No. 2568, average of duplicate, read-out: Percentage of inhibition/potentiation from control
T5 construct: purchased CEREP (contract assay) 2568
T5 sequence (P32300 whole entry): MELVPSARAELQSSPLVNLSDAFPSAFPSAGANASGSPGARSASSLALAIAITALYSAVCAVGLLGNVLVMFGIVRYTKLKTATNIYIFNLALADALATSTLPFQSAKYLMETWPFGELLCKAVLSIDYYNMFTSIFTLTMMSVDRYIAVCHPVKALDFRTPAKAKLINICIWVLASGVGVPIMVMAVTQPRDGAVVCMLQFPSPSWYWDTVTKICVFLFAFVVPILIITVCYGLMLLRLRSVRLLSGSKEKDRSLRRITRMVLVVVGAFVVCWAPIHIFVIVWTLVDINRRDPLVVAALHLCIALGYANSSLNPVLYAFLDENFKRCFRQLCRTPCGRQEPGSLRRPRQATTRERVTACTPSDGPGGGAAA

CYP2C9 = target: T6, CYP2C9 (Homo sapiens, UniProt P11712); assay: CYP inhibition, fluorescent assay; format: biochemical; settings: read-out: Inhibition of CYP isoforms (IC50), CYP2C9
T6 construct: Cyathus Exquirere (contract laboratory)
T6 sequence (P11712 whole entry, canonical isoform): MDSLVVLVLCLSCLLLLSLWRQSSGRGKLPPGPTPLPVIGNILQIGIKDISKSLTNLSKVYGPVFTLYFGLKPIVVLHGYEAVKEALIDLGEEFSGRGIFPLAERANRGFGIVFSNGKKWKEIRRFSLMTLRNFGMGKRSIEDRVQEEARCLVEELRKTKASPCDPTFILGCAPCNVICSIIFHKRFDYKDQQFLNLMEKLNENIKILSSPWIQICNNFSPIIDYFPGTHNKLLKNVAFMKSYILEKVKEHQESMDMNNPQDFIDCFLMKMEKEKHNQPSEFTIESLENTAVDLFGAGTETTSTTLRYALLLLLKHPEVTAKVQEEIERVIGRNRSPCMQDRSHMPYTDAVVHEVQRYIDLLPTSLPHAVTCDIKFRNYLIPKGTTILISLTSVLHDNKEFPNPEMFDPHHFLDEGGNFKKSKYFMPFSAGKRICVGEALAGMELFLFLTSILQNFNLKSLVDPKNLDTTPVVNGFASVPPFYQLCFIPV

TrkB = target: T7, TrkB (Rattus norvegicus, UniProt Q63604); assay: TrkB phosphorylation assay in MG87TrkB cells; format: cell-based; settings: BT13 10–100 μM, BDNF positive control
T7 construct: expressed in transfected cells; host or cells: MG87 murine fibroblasts (MG87TrkB)
T7 sequence (Q63604 32-821): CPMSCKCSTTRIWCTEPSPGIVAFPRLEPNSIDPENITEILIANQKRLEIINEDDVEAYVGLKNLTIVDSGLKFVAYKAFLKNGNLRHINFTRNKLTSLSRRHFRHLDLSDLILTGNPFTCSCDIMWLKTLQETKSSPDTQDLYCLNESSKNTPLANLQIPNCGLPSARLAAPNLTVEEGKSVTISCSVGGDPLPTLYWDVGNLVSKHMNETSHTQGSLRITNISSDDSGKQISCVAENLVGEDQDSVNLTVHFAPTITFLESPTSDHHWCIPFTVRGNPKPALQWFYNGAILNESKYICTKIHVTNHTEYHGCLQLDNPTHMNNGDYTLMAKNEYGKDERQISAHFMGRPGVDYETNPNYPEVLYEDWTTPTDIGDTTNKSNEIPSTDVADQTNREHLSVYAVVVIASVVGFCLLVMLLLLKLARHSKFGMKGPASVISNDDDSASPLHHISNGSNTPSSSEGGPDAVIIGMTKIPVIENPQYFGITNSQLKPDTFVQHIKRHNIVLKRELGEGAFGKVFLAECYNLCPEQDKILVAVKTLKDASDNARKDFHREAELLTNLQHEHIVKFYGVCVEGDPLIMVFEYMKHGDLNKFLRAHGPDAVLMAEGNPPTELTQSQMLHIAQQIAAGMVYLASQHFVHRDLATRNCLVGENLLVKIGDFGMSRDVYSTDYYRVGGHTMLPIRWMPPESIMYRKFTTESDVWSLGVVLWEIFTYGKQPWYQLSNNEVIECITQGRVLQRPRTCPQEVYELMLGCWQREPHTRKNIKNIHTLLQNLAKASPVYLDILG
Method: as §1

**Q.** With CCN(CC)S(=O)(=O)c1ccc(OC)c(N2CCN(C(=O)c3ccc(F)cc3C(F)(F)F)CC2)c1 [BT13] as the compound, how does the “Akt and Erk phosphorylation” value [1] read?
**A.** no Akt or Erk phosphorylation was observed

**Q.** And the inhibition at 1 µM [2]?
**A.** 4%

**Q.** And the IC50 (CYP3A4)?
**A.** 3.2 ± 0.42 µM

**Q.** And the remaining at 1 h [3]?
**A.** 108 ± 7.3%

**Q.** And the “mRNA level of RET in DRGs” value (RET mRNA in DRGs)?
**A.** no difference

**Q.** What about the IC50 (CYP2D6) of the same compound?
**A.** > 100 µM

**Q.** And the “efficacy, fold induction of luciferase above baseline” value (GFRα1/RET)?
**A.** 11.6 fold

**Q.** What about the EC50 (GFRα1/RET; 0.1–50 μM, read-out: EC50, luciferase activation) of the same compound?
**A.** 17.4 µM

**Q.** What about the inhibition at 1 µM [4] of the same compound?
**A.** -5.2%

**Q.** What about the IC50 (CYP2C9) of the same compound?
**A.** > 100 µM

**Q.** And the “TrkB phosphorylation, Western blotting” value (TrkB)?
**A.** did not produce any detectable increase
